Drawing on paper PMC9584815, “The aldolase inhibitor aldometanib mimics glucose starvation to activate lysosomal AMPK” (Nature Metabolism, 2022), this text covers Kd and IC50 for one compound.

One assay addresses T1, rabbit aldolase (ALDOA) (Oryctolagus cuniculus, UniProt P00883).
T1 construct: rabbit aldolase (ammonium sulfate precipitated; A8811)
T1 sequence (P00883 2-364): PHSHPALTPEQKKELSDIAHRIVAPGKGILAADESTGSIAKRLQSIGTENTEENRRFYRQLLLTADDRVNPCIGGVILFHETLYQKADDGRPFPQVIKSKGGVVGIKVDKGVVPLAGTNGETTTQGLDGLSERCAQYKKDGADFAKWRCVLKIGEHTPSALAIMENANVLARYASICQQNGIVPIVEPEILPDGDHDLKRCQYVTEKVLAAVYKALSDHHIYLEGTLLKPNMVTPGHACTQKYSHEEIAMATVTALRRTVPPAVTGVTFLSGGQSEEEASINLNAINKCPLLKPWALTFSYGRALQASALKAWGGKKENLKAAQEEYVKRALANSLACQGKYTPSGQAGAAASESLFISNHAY
Briefly: SPR (CM5 chip, Biacore 8K); also MS adduct on Lys230 and enzymatic inhibition (IC50 about […]). The class given is binding. (In general: In SPR one partner is held on a chip, and binding of the other changes the refractive index at the surface.)

The target of the next assay is T2, ALDOA (Homo sapiens, UniProt P04075).
T2 construct: full-length, His-tagged, bacterially expressed and purified
T2 sequence (P04075 2-364): T1 sequence (P00883 2-364) with H2Y, S3Q, H4Y, Y243F, V267I, I358V
The assay can be described thus: aldolase/TPI/GPDH-coupled NADH assay. The class given is biochemical.

Broadly, the Kd is a measure of binding affinity in units of concentration. Higher therefore signals weaker binding. One may read the IC50 as the concentration that gives 50% inhibition. Higher therefore signals a need for much substance.

The structures appear in SMILES notation. Substitutions are numbered along the chain they refer to.

Consider `CCCCCCCCCCCCCCCCn1cc[n+](Cc2c(Cl)cccc2Cl)c1C` [LXY-05-029, aldometanib], for which, at rabbit aldolase (ALDOA), the Kd was about 20 µM. In addition, the IC50 against ALDOA is about 50 µM.
